The values below come from US9884031B2, “Use of HDAC inhibitors for treatment of cardiac rhythm disorders” (THE TRUSTEES OF THE UNIVERSITY OF PENNSYLVANIA, priority 2007, dated 2018).

One test concerns phospho-p38-MAPK. Description: Western blot of atrium: phospho-p38-MAPK. Type of test: in vivo, mouse. The following applies: between Hop^Tg, TSA-Hop^Tg or control mice, FIG. 2C. Here is the method: Adult mouse atrium and ventricle were dissected and homogenized in buffer containing 1% Igepal surfactant, 0.5% deoxycholate sodium, 2% SDS, 5 mmol EDTA (pH=7.4), 1% protease inhibitor cocktail tablet (Roche) with and without phosphatase inhibitor cocktail (Sigma-Aldrich). Samples were cleared of debris by centrifugation at 5000 g for 10 min. and the protein concentration was determined using a BCA protein assay kit (Pierce). Protein samples were run on a 4-12% gradient pre-cast SDS-PAGE gel (Invitrogen), and after electrophoresis were transferred onto PVDF membranes (Millipore) using 0.1% acetic acid/10% methanol as a transfer buffer. Membranes were incubated with primary antibodies in 5% milk and PBS overnight at 4° C. and then washed for 5 min, 4 times with TBS-T solution. […] Results were visualized by enhanced chemiluminescence using a commercially available kit (Western Breeze, Invitrogen) and data were recorded on BioMax-MR film (Kodak, Rochester, N.Y.). Densitometry was determined using the Image-J software package (National Institutes of Health). […]
A general note: A western blot detects proteins with antibodies after separation by electrophoresis.

Test [1] concerns Hop transgenic mice (Hop^Tg). Description: Invasive hemodynamic measurements. It counts as in vivo, mouse. The following applies: for Effect upon LVEDP, systolic contraction (peak positive dP/dt) and diastolic relaxation (peak negative dP/dt), in words: TSA-Hop^Tg vs Hop^Tg, treatment initiated at 12-14 weeks of age. As to the method: Hop^Tg mice 14-18 weeks old were compared with wild-type littermates and TSA treated Hop^Tg mice. Anesthesia was induced with 3% isoflurane and maintained by ventilation with 0.75% isoflurane. Temperature was maintained at 36-37° C. Intracardiac pressures were recorded using a 1.4 French micromanometer catheter (Micro-Tip SPR-671; Millar Instruments) that was zeroed prior to making measurements on each animal in a saline bath. The catheter was inserted via the right carotid artery to record intracardiac pressures and digitized at 2-kHz using a PowerLab/16 SP A/D converter (ADInstruments Ltd.).
Trichostatin A 0.6 mg/kg daily in a volume of 0.2 mL was given by intraperitoneal injection for 14 consecutive days upon inducible atrial arrhythmias and atrial structurally remodeling in an engineered mouse model with left ventricular hypertrophy and inducible atrial fibrillation. Transgenic mice over-expressing the homeodomain-only protein (Hop^Tg), which promotes cardiac hypertrophy and interstitial fibrosis, were divided into three groups: control, Hop^Tg mice and Hop^Tg mice treated with trichostatin A.
Hop^Tg mice had higher left ventricular end-diastolic pressure (LVEDP), and reduced peak systolic contraction and diastolic relaxation compared to WT mice. However, trichostatin A had no effect upon the LVEDP, systolic contraction or diastolic relaxation when treatment was initiated in animals aged 12-14 weeks of age. These parameters were similar between Hop^Tg and TSA-Hop^Tg mice, though still abnormal when compared to WT mice. In addition, the heart weight to tibia length ratio (HW/TL) was higher in Hop^Tg and TSA-Hop^Tg mice compared to WT, but there was no difference in the HW/TL between Hop^Tg and TSA-Hop^Tg mice. *P<0.05 compared to WT; ^†P<0.05 compared to TSA-Hop^Tg.

Test [2] concerns connexin40 and connexin43. Description: Distribution of atrial connexins (quantitative confocal immunodetection). The note with it: TSA-treated Hop^Tg mice. It counts as in vivo, mouse. Here is the method:
Mice were heparizined, anesthetized with pentobarbital […] and hearts excised through a sternotomy. Hearts were mounted on a Langendorf apparatus, perfused with Tyrode's solution (composition as in Ref. 21) at 3.0-3.5 milliliter [ml]/minute [min] at a temperature of 36°-37° C. Hearts were perfused with Ca^2+-free Tyrode's solution for 6 min., followed by 12-15 min. of perfusion with Ca^2+-free Tyrode's solution containing: collagenase B, collagenase D (Roche Chemical Co.) and protease (Fraction IV, Sigma Chemical Co.). […]
The area of immunoreactive signal in discrete spots from isolated atrial myocytes was quantified using laser scanning confocal microscopy. Scanning of single optical slices (<1 μm) by confocal laser scanning microscopy was done on the Leica TCS SP2 system using the spectral detection set for simultaneous fluorescence imaging of Alexa488 and DIC imaging with transmitted light to obtain the cell outline. […] Areas were quantified using the count nuclei application in the Metamorph software package (Molecular Devices). The total area of each atrial myocyte was calculated from the DIC images and the area of the connexin immunoreactive spots was calculated from the Alexa488 fluorescent images.

The subject of test [3] is models of pressure-overload and angiotensin-induced hypertrophy. The note with it: cited from earlier work.
For a further test, the system named is HopX^Tg mice. In words: Echocardiographic analysis of ventricular structure and function. Type of test: in vivo, mouse. As to the method: To better characterize the effects of TSA upon ventricular structure and function, echocardiographic analysis of HopX^Tg, TSA-HopX^Tg and WT mice was performed. […] However, TSA had no effect upon these parameters as ventricular wall thickness and systolic function were similar between HopX^Tg and TSA-HopX^Tg mice (Table 4), consistent with the hemodynamic analysis of these animals.

Setting [4] is: TSA 0.6 mg/kg daily IP 14 days, Hop^Tg mice, n = 8, mean±SD.
Setting [5] is: TSA-treated HopX^Tg mice, n = 4, echocardiography.

Marks after values point to notes of the source that are not given here.

In the case of `CC(/C=C/C(=O)NO)=C\[C@@H](C)C(=O)c1ccc(N(C)C)cc1` [TSA, Trichostatin A], the “Phospho-p38-MAPK protein expression in atrium” value in the test with phospho-p38-MAPK is recorded as “not different”. For the same molecule, in test [1] (setting [4]), the Heart rate was determined as 392 ± 63.5 bpm, the “LV end diastolic pressure” value is listed as 7.2 ± 2.4* mmHg, the LV systolic pressure turned out to be 90.6 ± 8.8 mmHg and the “Peak negative dP/dt” value is −2267 ± 1320* mmHg/s. Besides, in test [1] (setting [4]), the “Peak positive dP/dt” value came to 6465 ± 1613 mmHg/s. The “Effect upon LVEDP, systolic contraction (peak positive dP/dt) and diastolic relaxation (peak negative dP/dt), in words” value in test [1] is on record as “no significant changes”. In test [1] (listed as trichostatin A), the “Effect upon LVEDP, systolic contraction (peak positive dP/dt) and diastolic relaxation (peak negative dP/dt), in words” value was “no effect”. Moreover, the “Distribution of connexin40 and connexin43 in the atrium” value in test [2] is “restored”. For the same molecule, the “Myocardial mechanical function, in words” value in test [3] is “improve”. The “Ventricular wall thickness and systolic function, in words” value in the test with HopX^Tg mice (TSA-HopX^Tg vs HopX^Tg mice, echocardiography) is reported as “no effect”. Also, in the test on HopX^Tg mice (setting [5]), the “Intra-ventricle Septum” value came out at 1.13 ± 0.18 mm, the “LV Ejection Fraction” value came to 87.7 ± 7.00 %, the “LV Fractional Shortening” value is reported as 53.9 ± 0.50 % and the “Left Ventricle Posterior Wall” value is on record as 1.10 ± 0.14 mm. The “Left ventricular wall dimensions, in words” value in the test with HopX^Tg mice (older 14-18 week-old HopX^Tg mice treated with TSA) was “no change”.
